Measured values: patent publication US20240368120A1 (Terns Pharmaceuticals, Inc., priority 2023, published 2024)

Biological target: T1, human GLP-1R receptor (Homo sapiens, UniProt P43220)
T1 construct: expressed in transfected cells
Assay: GLP-1R low expression cell assay (cAMP TR-FRET, CHO-K1_hGLP-1Rlow_clone10 cells)
Type: cell-based
Details: for EC50: cAMP TR-FRET, 30 min at 25° C.; for Emax: maximum activation relative to control GLP-1 peptide agonist
Procedure: Stable cell lines expressing high and low GLP-1R surface expression were generated in CHO-K1 cells transfected (Fugene 6) with a puromycin selectable DNA plasmid encoding human GLP-1R receptor (accession number: NM_002062.5) under control of an EF1A promoter. Transfected cells were seeded into 24-well plates (9,000 cells/well) containing complete medium and incubated in a humidified incubator at 37° C. with 5% carbon dioxide. After overnight incubation, medium was replaced with complete medium supplemented with puromycin (6 μg/mL) and refreshed every 2-3 days to select for stably transfected cells. Individual pools of selected cells were expanded prior to analysis for responsiveness to GLP-1 control peptide using a TR-FRET assay to detect cAMP (LANCE Ultra CAMP Assay, Perkin Elmer). Briefly, cells were collected in Versene solution, plated in 384-well plates (1,000 cells/well) and combined with serially diluted GLP-IR control peptide (10 nL) using an acoustic dispenser (ECHO). Plates were incubated for 30 minutes at 25° C. prior to the addition of EU-CAMP tracer (5 μL) and Ulight-anti-CAMP (5 μL) reagents to each well, followed by 15 minutes incubation at 25° C. TR-FRET signal was detected using an En Vision Multimode Plate Reader (excitation=320 nm; emission=615 and 655 nm). Dose-response curves were used to generate EC50 values as a measure of responsiveness to the GLP-IR control peptide. Selected cell lines were monitored for responsiveness over multiple passages to ensure stability. […] Briefly, GLP-IR expression was analyzed by flow cytometry using a fluorescein-labeled Exendin-4 peptide fluorescent probe (FLEX). Cells were harvested in Versene solution and washed 3-times with PBS+0.5% BSA before incubation with FLEX reagent (10 μM) for 2 hours at room temperature. After incubation, cells were washed 3-times in PBS+0.5% BSA before final resuspension in PBS prior to analysis by flow cytometry to measure FLEX mean fluorescence intensity (MFI) as a measure of GLP-IR expression on the cell surface.
For compound testing in the CHO-K1_hGLP-IRlow_clone10 cell line, cells were seeded in 384-well plates (1,000 cells/well). Test compounds were serially diluted in DMSO (10-point, 3-fold dilution), added to wells using an ECHO dispenser (10 nL/well) and plates were centrifuged for 1 min and agitated for 2 min at room temperature prior to 30-minute incubation at 25° C. After incubation, Eu-CAMP (5 μL) and Ulight-anti-cAMP (5 μL) reagents were added to each well, followed by centrifugation for 1 minute, agitation for 2 minutes at room temperature, and final incubation of the plates at 25° C. for 15 minutes. Plates were read using an EnVision microplate reader (excitation=320 nm; emission=615 and 655 nm). Dose-response curves were generated from duplicate wells based on percent activation calculated relative to a control GLP-1 peptide agonist that was run in parallel. EC50 values were determined by fitting percent activation as a function of compound concentration using the Hill equation (XLfit).
The compounds tested were compound samples prepared according to the General Procedures described in the Examples section.

T1 sequence (P43220 24-463): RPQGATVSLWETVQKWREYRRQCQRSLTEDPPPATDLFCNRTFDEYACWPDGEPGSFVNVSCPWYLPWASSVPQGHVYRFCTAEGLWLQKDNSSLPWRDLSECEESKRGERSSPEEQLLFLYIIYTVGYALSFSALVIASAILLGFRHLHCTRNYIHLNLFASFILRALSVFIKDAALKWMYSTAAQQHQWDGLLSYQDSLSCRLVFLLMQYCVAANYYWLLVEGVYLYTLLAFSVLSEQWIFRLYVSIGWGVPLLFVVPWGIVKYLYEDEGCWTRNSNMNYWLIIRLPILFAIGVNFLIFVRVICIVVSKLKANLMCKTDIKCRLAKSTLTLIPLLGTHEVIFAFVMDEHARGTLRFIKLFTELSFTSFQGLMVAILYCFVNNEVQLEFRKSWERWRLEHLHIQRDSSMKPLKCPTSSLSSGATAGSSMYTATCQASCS

Compound	EC50 [µM]	Emax [%]
Cn1c(CN2CCC(c3cccc(OCc4ccc(Cl)cc4F)n3)CC2)nc2c3c(c(C(=O)O)cc21)OCO3 [Compound 275, 7-((4-(6-((4-Chloro-2-fluorobenzyl)oxy)pyridin-2-yl)piperidin-1-yl)methyl)-6-methyl-6H-[1,3]dioxolo[4′,5′:3,4]benzo[1,2-d]imidazole-4-carboxylic acid]	0.01 to 0.1	> 85
COc1cc(C(=O)O)cc2c1nc([C@@H](C)N1CCC(c3cccc(OCc4ccc(C#N)cc4F)n3)CC1)n2C [Compound 103, (R)-2-(1-(4-(6-((4-Cyano-2-fluorobenzyl)oxy)pyridin-2-yl)piperidin-1-yl)ethyl)-4-methoxy-1-methyl-1H-benzo[d]imidazole-6-carboxylic acid]	> 1	50 to 85
Cn1c(CN2CCC(c3nc(OCc4ccc(Cl)cc4F)ncc3F)CC2)nc2c(OC(F)F)cc(C(=O)O)cc21 [Compound 375, 2-((4-(2-((4-Chloro-2-fluorobenzyl)oxy)-5-fluoropyrimidin-4-yl)piperidin-1-yl)methyl)-4-(difluoromethoxy)-1-methyl-1H-benzo[d]imidazole-6-carboxylic acid]	0.1 to 1	> 85
CC(C)(C)Oc1cc(C(=O)O)cc2c1nc(CN1CCC(c3cccc(OCc4ccc(C#N)cc4F)n3)CC1)n2C[C@@H]1CCO1 [Compound 109, (S)-4-(tert-Butoxy)-2-((4-(6-((4-cyano-2-fluorobenzyl)oxy)pyridin-2-yl)piperidin-1-yl)methyl)-1-(oxetan-2-ylmethyl)-1H-benzo[d]imidazole-6-carboxylic acid]	< 0.01	> 85
[2H]C([2H])([2H])Oc1cc(C(=O)O)cc2c1nc(CN1CCC(c3cccc(OCc4ccc(C#N)cc4F)n3)CC1)n2C [Compound 349, 2-((4-(6-((4-Cyano-2-fluorobenzyl)oxy)pyridin-2-yl)piperidin-1-yl)methyl)-4-(methoxy-d3)-1-methyl-1H-benzo[d]imidazole-6-carboxylic acid]	< 0.01	> 85
COc1cc(C(=O)O)cc2c1nc(CN1CCC(c3cccc(OCc4ccc(C#N)cc4F)n3)CC1)n2C(F)F [Compound 147, 2-((4-(6-((4-Cyano-2-fluorobenzyl)oxy)pyridin-2-yl)piperidin-1-yl)methyl)-1-(difluoromethyl)-4-methoxy-1H-benzo[d]imidazole-6-carboxylic acid]	0.1 to 1	> 85
CO/N=C/c1ccc(COc2cccc(C3CCN(Cc4nc5c(OC)cc(C(=O)O)cc5n4C[C@@H]4CCO4)CC3)n2)c(F)c1 [Compound 9, (S)-2-((4-(6-((2-Fluoro-4-((methoxyimino)methyl)benzyl)oxy)pyridin-2-yl)piperidin-1-yl)methyl)-4-methoxy-1-(oxetan-2-ylmethyl)-1H-benzo[d]imidazole-6-carboxylic acid]	< 0.01	> 85
COCCOCCOCCOCCOCCOc1cc(C(=O)O)cc2c1nc(CN1CCC(c3cccc4c3O[C@](C)(c3ccc(Cl)cn3)O4)CC1)n2Cc1cncs1 [Compound 5, (R)-4-((2,5,8,11,14-pentaoxahexadecan-16-yl)oxy)-2-((4-(2-(5-chloropyridin-2-yl)-2-methylbenzo[d][1,3]dioxol-4-yl)piperidin-1-yl)methyl)-1-(thiazol-5-ylmethyl)-1H-benzo[d]imidazole-6-carboxylic acid]	> 1	< 25
Cn1c(CN2CCC(c3cccc(OCc4ccc(C#N)cc4F)n3)CC2)nc2c(OCCF)cc(C(=O)O)cc21 [Compound 183, 2-((4-(6-((4-Cyano-2-fluorobenzyl)oxy)pyridin-2-yl)piperidin-1-yl)methyl)-4-(2-fluoroethoxy)-1-methyl-1H-benzo[d]imidazole-6-carboxylic acid]	< 0.01	> 85
COc1cc(C(=O)O)cc2c1nc(CN1CCC(c3cccc4c3O[C@@](C)(c3ccc(Cl)cn3)O4)CC1)n2Cc1cncs1 [Compound 32, (S)-2-((4-(2-(5-Chloropyridin-2-yl)-2-methylbenzo[d][1,3]dioxol-4-yl)piperidin-1-yl)methyl)-4-methoxy-1-(thiazol-5-ylmethyl)-1H-benzo[d]imidazole-6-carboxylic acid]	< 0.01	
Cn1c(CN2CCC(c3cccc(OCc4ccc(Cl)cc4F)n3)CC2)nc2c(OC3CC3)cc(C(=O)O)cc21 [Compound 215, 2-((4-(6-((4-Chloro-2-fluorobenzyl)oxy)pyridin-2-yl)piperidin-1-yl)methyl)-4-cyclopropoxy-1-methyl-1H-benzo[d]imidazole-6-carboxylic acid]	< 0.01	> 85
Cn1c(CN2CCC(c3nccc(OCc4ccc(C#N)cc4F)n3)CC2)nc2c(OC(F)F)cc(C(=O)O)cc21 [Compound 184, 2-((4-(4-((4-Cyano-2-fluorobenzyl)oxy)pyrimidin-2-yl)piperidin-1-yl)methyl)-4-(difluoromethoxy)-1-methyl-1H-benzo[d]imidazole-6-carboxylic acid]	0.1 to 1	> 85
CCOc1cc(C(=O)O)cc2c1nc(CN1CCC(c3cccc4c3OC[C@@H](c3ccc(Cl)cc3F)O4)CC1)n2C [Compound 269, (R)-2-((4-(2-(4-chloro-2-fluorophenyl)-2,3-dihydrobenzo[b][1,4]dioxin-5-yl)piperidin-1-yl)methyl)-4-ethoxy-1-methyl-1H-benzo[d]imidazole-6-carboxylic acid]	0.1 to 1	> 85
Cn1c(CN2CCC(c3cccc(OCc4ccc(Cl)cc4F)n3)CC2)nc2c(OCC(F)(F)F)cc(C(=O)O)cc21 [Compound 224, 2-((4-(6-((4-Chloro-2-fluorobenzyl)oxy)pyridin-2-yl)piperidin-1-yl)methyl)-1-methyl-4-(2,2,2-trifluoroethoxy)-1H-benzo[d]imidazole-6-carboxylic acid]	0.01 to 0.1	> 85
Cn1c(CN2CCC(c3cccc4c3O[C@H](c3ccc(Cl)cc3F)CO4)CC2)nc2c(OCCF)cc(C(=O)O)cc21 [Compound 333, (R)-2-((4-(3-(4-chloro-2-fluorophenyl)-2,3-dihydrobenzo[b][1,4]dioxin-5-yl)piperidin-1-yl)methyl)-4-(2-fluoroethoxy)-1-methyl-1H-benzo[d]imidazole-6-carboxylic acid]	0.1 to 1	> 85
[2H]C([2H])(C)Oc1cc(C(=O)O)cc2c1nc(CN1CCC(c3cccc(OCc4ccc(Cl)cc4F)c3)CC1)n2C [Compound 284, 2-((4-(3-((4-Chloro-2-fluorobenzyl)oxy)phenyl)piperidin-1-yl)methyl)-4-(ethoxy-1,1-d2)-1-methyl-1H-benzo[d]imidazole-6-carboxylic acid]	0.01 to 0.1	> 85
Cn1c(CN2CCC(c3cccc4c3O[C@H](c3ccc(C#N)cc3F)CO4)CC2)nc2c(OC(F)F)cc(C(=O)O)cc21 [Compound 124, (R)-2-((4-(3-(4-Cyano-2-fluorophenyl)-2,3-dihydrobenzo[b][1,4]dioxin-5-yl)piperidin-1-yl)methyl)-4-(difluoromethoxy)-1-methyl-1H-benzo[d]imidazole-6-carboxylic acid]	> 1	25 to 50
Cn1c(CN2CCC(c3cccc(OCc4ccc(Cl)cc4F)n3)CC2)nc2c(O)c(C(=O)O)ccc21 [Compound 345, 2-((4-(6-((4-Chloro-2-fluorobenzyl)oxy)pyridin-2-yl)piperidin-1-yl)methyl)-4-hydroxy-1-methyl-1H-benzo[d]imidazole-5-carboxylic acid]	> 1	50 to 85
Cn1c(CN2CCC(c3cccc(Cl)c3OCc3ccc(C#N)cc3F)CC2)nc2c(OC(F)F)cc(C(=O)O)cc21 [Compound 138, 2-((4-(3-Chloro-2-((4-cyano-2-fluorobenzyl)oxy)phenyl)piperidin-1-yl)methyl)-4-(difluoromethoxy)-1-methyl-1H-benzo[d]imidazole-6-carboxylic acid]	> 1	25 to 50
COc1ccc(COc2cccc(C3CCN(Cc4nc5c(OC(F)F)cc(C(=O)O)cc5n4C)CC3)n2)c(F)c1 [Compound 228, 4-(Difluoromethoxy)-2-((4-(6-((2-fluoro-4-methoxybenzyl)oxy)pyridin-2-yl)piperidin-1-yl)methyl)-1-methyl-1H-benzo[d]imidazole-6-carboxylic acid]	0.01 to 0.1	> 85
